Measured values: US20050282863A1, “Novel-N substituted dihydrobenzothiepino, dihydrobenzoxepino and tetrahydro benzocyclohepta indoles as selective estrogen receptor modulators” (Council of Scientific & Industrial Research, priority 2004, published 2005)
Where two headings read alike, the source gives them in different places.

Columns and labels:
[1] = system: chick fetal bones in culture; assay: Inhibition in PTH-induced resorption of 45Ca from chick fetal bones in culture (antiresorptive activity in vitro); type: cell-based; conditions: Gallus gallus, 96 h, 100 μM; PTH-induced 45Ca resorption, 96 h culture; read-out: T/C ratio
Protocol: 5 μl of each concentration are used for evaluation of antiresorptive activity in vitro. In control experiments, 5 μl of appropriate solvent is used in lieu of the test compound. Femur bones are isolated from chick embryos on day 11 post-ovulation. The adhering soft connective tissue is completely removed. Each femur bone is then placed in a drop of phosphate buffered saline (PBS) and is transferred to BGJb culture medium containing ^45CaCl2 and incubated for 2 h. Labeled femur bones are washed 2-3 times with PBS and transferred to BGJb medium containing parathyroid hormone and cultured for 96 h in the presence or absence of the compound of invention or the vehicle in BGJb medium. Contralateral femur of each fetus serves as corresponding control. Culture medium with the respective treatment in each well is changed after 48 h. On termination of the culture at 96 h, bones are transferred to 0.1 N HCl for 24 h. Radioactivity due to ^45Ca in the spent medium collected at 48 and 96 h of culture and HCl extract at 96 h of culture is quantified by Liquid Scintillation Spectrophotometer in 10 ml of the scintillation fluid. Bone resorbing activity is expressed as percentage of ^45Ca released into the culture medium and the effect of the compound of invention as percent of the corresponding contra-lateral control or T/C ratio as shown below: [formula]
Appropriate solvents are selected from solvents like water, physiological saline, phosphate buffered saline, phosphate buffer, DMSO alone or in a suitable combination thereof.

MCF-7 cells = assay: Antiproliferative/cytotoxic activity in cultured MCF-7 cells (SRB assay); type: cell-based; conditions: Homo sapiens, MCF7, 48 h, MCF-7, 48 h
Protocol: The procedure is based on the following methods: New calorimetric assay for anticancer drug screening, Skehan et al., J Natn Cancer Inst, 82,1107, 1990 and Feasibility of a high-flux anticancer drug screen using a diverse panel of cultured human tumor cell lines, J Natn Cancer Inst, 83,757, 1991.
A fully confluent flask of MCF-7 cells in trypsinized and 10^4 cells/well are plated in a 96 welled flat bottomed plate in 200 μl Minimum Essential Medium (MEM), pH 7.4 and allowed to attach for 24 h at 37° C. in a humidified CO2 incubator. Subsequently, the compound of invention dissolved in DMSO or ethanol is added at a specified concentration and further incubated for 48 h as before. The cells are then fixed in 50 μl cold 50% TCA and incubated for 1 h at 4° C. The supernatant is discarded and the plate is washed five times with deionized water and air-dried. 100 μl of 0.4% (w/v) Sulforhodamine B (SRB) in 1% acetic acid is added to each well and incubated at room temperature for 30 minutes. Unbound SRB is removed by five washes with chilled 1% acetic acid and the plate is air-dried. 200 μl of unbuffered 10 mM Tris base is added to solublize the bound stain for 5 minutes at room temperature and O.D. is read at 560 nm in a plate reader. The graph is plotted between O.D. and concentration and LC50 is calculated with respect to tamoxifen, which is used as a positive control.

adult female rats = assay: Post-coital antifertility efficacy in adult female rats; type: in vivo, rat; conditions: oral; for responders at 10 mg/kg: Rattus norvegicus, 240 h
From the text: Adult female rats are caged overnight with coeval males of proven fertility and their vaginal smears are checked on the following morning. The day of presence of spermatozoa in the vaginal smear is taken as day 1 of pregnancy. Mated rats are isolated and randomized into various treatment groups and treated orally with the compound of invention or the vehicle on days 1-7/1-5 post-coitum. Animals of all the groups are autopsied on day 10 post-coitum and number and status of corpora lutea and implantation sites in each rat are recorded. The compounds of the present invention are considered active if there is complete absence of implantations in the uterus of all rats, in comparison to presence of normal implantations in the uterus of rats of vehicle control group.

[2] = system: immature ovariectomized rats; assay: Estrogen agonistic activity: increase in uterine weight in immature ovariectomized rats; type: in vivo, rat; conditions: 3 days, percent of ovariectomized + vehicle group; for change in vivo at 10 mg/kg / change in vivo at 3 mg/kg: Rattus norvegicus, 72 h; for change in vivo at 3 mg/kg: daily dose 3 mg/kg
Protocol: Twenty-one-day-old immature female rats are bilaterally ovariectomized under light ether anaesthesia and, after post-operative rest for 7 days, are randomized into different treatment groups. Each rat receives the compound of the invention once daily for 3 consecutive days on days 28-30 of age. A separate group of animals receiving only the vehicle for similar duration serves as control. A autopsy 24 h after the last treatment on day 31 of age, vaginal smear of each rat is taken and uterus is carefully exised, gently blotted, weighed and fixed for histology and histomorphometry using image analysis. Premature opening of vagina, cornification of vaginal epitelium, increase in uterine fresh weight, total uterine and endometrial area and uterine luminal epithelial cell height are taken as parameters for evaluation of estrogen agonistic activity in comparision to rats of vehicle control group.

[3] = system: immature ovariectomized rats; assay: Estrogen antagonistic activity: inhibition in 17α-ethynylestradiol induced uterine weight gain in immature ovariectomized rats; type: in vivo, rat; conditions: daily dose 10 mg/kg with 0.02 mg/kg 17-alfa-ethynylestradiol, 3 days; for inhibition in vivo at 10 mg/kg/day: Rattus norvegicus, 72 h, read-out: Percent inhibition in 17α-ethynylestradiol induced uterine weight gain
Protocol: Twenty-one-day-old immature female rats are bilaterally ovariectomized under light ether anaesthesia and after post-operative rest for 7 days, are randomized into different treatment groups. Each rat receives the compounds of the invention and 0.02 mg/kg dose of 17-alfa-ethynylestradiol in 10% ethanol-distilled water once daily for 3 consecutive days on days 28-30 of age. A separate group of animals receiving only 17-alfa-ethynylestradiol (0.02 mg/kg) in 10% ethanol-distilled water for similar duration are used for comparison. At autopsy on day 31 of age, vaginal smear of each rat is taken and uterus is carefully excised, gently blotted, weighed and fixed for histology and histomorphometry using image analysis. Inhibition in 17-alfa-ethynylestradiol-induced premature opening of vagina, cornification of vaginal epithelium, increase in uterine fresh weight, total uterine and endometrial area and uterine luminal epithelial cell height are taken as parameters for evaluation of estrogen antagonistic activity.

estrogen receptors = molecular target: T1, estrogen receptors (Rattus norvegicus, UniProt P06211); assay: Relative binding affinity (RBA) to estrogen receptors, 3H-estradiol competition assay; parameters: key: % of 17-beta-estradiol binding affinity (estradiol = 100); conditions: relative to 17-beta-estradiol (=100, percentage value); rat uterine cytosol, 3H-E2, 18 hrs at 4° C.
T1 construct: Aliquot of uterine cytosol (200 μl; 2 uteri per ml) prepared in TEA buffer; from tissue; host or cells: uterine cytosol of immature estradiol-primed 20-21 day old rats
T1 sequence (P06211 1-600): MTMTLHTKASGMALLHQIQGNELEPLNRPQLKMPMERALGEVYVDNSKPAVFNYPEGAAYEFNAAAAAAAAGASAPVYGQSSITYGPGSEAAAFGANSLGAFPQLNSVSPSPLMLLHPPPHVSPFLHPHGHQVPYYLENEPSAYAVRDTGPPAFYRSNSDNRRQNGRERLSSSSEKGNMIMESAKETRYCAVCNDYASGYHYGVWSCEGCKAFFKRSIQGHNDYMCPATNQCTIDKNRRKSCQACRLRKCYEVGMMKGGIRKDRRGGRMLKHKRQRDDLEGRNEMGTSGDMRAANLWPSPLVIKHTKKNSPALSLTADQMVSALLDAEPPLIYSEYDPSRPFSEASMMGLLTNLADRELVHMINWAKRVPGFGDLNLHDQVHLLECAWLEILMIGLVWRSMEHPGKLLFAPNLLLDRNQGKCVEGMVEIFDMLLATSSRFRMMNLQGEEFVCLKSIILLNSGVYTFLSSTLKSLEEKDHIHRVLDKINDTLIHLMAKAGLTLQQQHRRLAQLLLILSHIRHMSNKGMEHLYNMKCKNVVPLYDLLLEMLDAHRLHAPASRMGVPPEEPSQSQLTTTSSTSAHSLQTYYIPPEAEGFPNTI
Protocol: The relative binding affinity (RBA) of the compounds for estrogen receptor is determined by competition assay, employing ^3H-estradiol (^3H-E2) as the radioligand. The test ligands and ^3H-E2 are incubated at 4° C. with cystol estrogen receptors obtained from uteri of immature estradoil-primed (1 μg/rat 24 h before autopsy) 20-21 days old rats. Aliquot of uterine cytosol (200 μl; 2 uteri per ml) prepared in TEA buffer (10 mM Tris, 1.5 mM EDTA, 0.02% sodium azide, pH 7.4) are incubated in duplicate with a fixed concentration of ^3H-E2 in the absence or presence of various concentrations of the competitor substance dissolved in 30 μl of the TEA buffer containing DMF as co-solvent (final concentration of DMF in the incubation mixture never exceeded 5%) for 18 hrs at 4° C. At the end of this period, dextran coated charcoal (5% Norit 0.5% dextran) suspension in 100 μl of TEA buffer is added to each tube, briefly vortexed and allowed to stand for 15 minutes at 4° C. The mixture is centrifuged at 800 g for 10 minutes and the supernatants counted for radioactivity in 10 ml of a dioxane-based scintillation fluid. RBA of the text compound is computed from a graph plotted between percent bound radioactivity verses log concentration of the test substance. […] This when multiplied with 100 gives the percentage value designated as RBA.

[4] = daily dose 10 mg/kg, days 1-7 post-coitum

Row | SMILES | activity at 100 µM [1] [%] | CC50 (MCF-7 cells; read-out: LC50, Test-4) [µM] | change in vivo at 10 mg/kg ([2]; daily dose 10 mg/kg) [%] | inhibition in vivo at 10 mg/kg/day [3] [%] | % Efficacy (adult female rats; [4]) | RBA (estrogen receptors) | further results
1 | c1ccc2c(c1)SCCc1c-2n(CCCCCN2CCCCC2)c2ccccc12 [Example number 11, 12-[5-(Piperidine-1-yl)pentyl]-6,7-dihydro-12H-benzothiepino [5,4-b]indole] | 77 | 8.3 | 50 | 2 | – | – | responders at 10 mg/kg (adult female rats; [4]): 50%
2 | c1ccc2c(c1)SCCc1c-2n(CCCCCN2CCCC2)c2ccccc12 [Example number 12, 12-[5-(Pyrrolidine-1-yl)pentyl]-6,7-dihydro-12H-benzothiepino [5,4-b]indole] | 78 | – | – | – | Inactive | 0.88 | CC50 (MCF-7 cells; read-out: LC50, Test-1): 63 µM; change in vivo at 3 mg/kg [2]: 3.4%
3 | CCCCN(C)CCCCCn1c2c(c3ccccc31)CCSc1ccccc1-2.O=C(O)/C=C/C(=O)O [Example number 16, 12-[5-(N-butylmethylamino)pentyl]-6,7-dihydro-12H-benzothiepino [5,4-b]indole fumaric acid Salt] | – | – | – | – | – | <0.001 | Percent increase in uterine weight ([2]; daily dose 10 mg/kg): 2.00%; Percent inhibition in 17α-ethynylestradiol induced uterine weight gain [3]: 2.00%
4 | Oc1ccc2c(c1)SCCc1c-2n(CCCCCN2CCCCC2)c2ccccc12 [Example number 24, 3-Hydroxy-12-[5-(piperidine-1-yl)pentyl]-6,7-dihydro-12H-benzothiepino [5,4-b]indole] | 78 | 27 | – | – | Inactive | 10.75 | –
5 | Oc1ccc2c(c1)SCCc1c-2n(CCCCCN2CCCCC2)c2ccc(O)cc12 [Example number 35, 3,9-Dihydroxy-12-[5-(piperidine-1-yl)pentyl]-6,7-dihydro-12H-benzothiepino [5,4-b]indole] | 99 | 40 | – | – | Inactive | <0.001 | –
6 | Oc1ccc2c(c1)SCCc1c-2n(CCCCCN2CCCC2)c2ccc(O)cc12 [Example number 36, 3,9-Dihydroxy-12-[5-(pyrrolidine-1-yl)pentyl]-6,7-dihydro-12H-benzothiepino [5,4-b]indole] | 118 | 60 | – | – | – | <0.001 | –
7 | c1ccc2c(c1)SCCc1c-2n(Cc2ccc(OCCN3CCCCC3)cc2)c2ccccc12 [Example number 39, 12-[4-(2-Piperidin-1-yl-ethoxy)benzyl]-6,7-dihydro-12H-benzothiepino [5,4-b]indole] | 85 | – | 83.3 | 3.7 | Inactive | – | –
8 | c1ccc2c(c1)OCCc1c-2n(CCCCCN2CCCCC2)c2ccccc12 [Example number 49, 12-[5-(Piperidine-1-yl)pentyl]-6,7-dihydro-12H-benzoxepino[5,4-b]indole] | 63 | – | – | – | – | – | responders at 10 mg/kg (adult female rats; [4]): 100%; % Efficacy (adult female rats; daily dose 5 mg/kg, days 1-5 post-coitum): Inactive
9 | c1ccc2c(c1)OCCc1c-2n(CCCCCCN2CCCCC2)c2ccccc12 [Example number 51, 12-[6-(Piperidine-1-yl)hexyl]-6,7-dihydro-12H-benzoxepino[5,4-b]indole] | – | – | 20 | 14 | Inactive | 0.059 | CC50 (MCF-7 cells; read-out: LC50, Test-1): 22.3 µM; CC50 (MCF-7 cells; read-out: LC50, Test-3): 12.8 µM; change in vivo at 3 mg/kg [2]: 21.9%
10 | c1ccc2c(c1)OCCc1c-2n(Cc2ccc(OCCN3CCCCC3)cc2)c2ccccc12 [Example number 56, 12-[4-(2-Piperidin-1-yl-ethoxy)benzyl]-6,7-dihydro-12H-benzoxepino[5,4-b]indole] | 103 | – | 15.4 | 12.8 | Inactive | – | –
